Laboratory results as given in US20120128715A1, “METHOD FOR STIMULATING THE IMMUNE RESPONSE OF NEWBORNS” (3M INNOVATIVE PROPERTIES COMPANY, priority 2004, published 2012).
No end group written: not given here. 2,3‑bisacyloxypropyl = 2,3-bisacyloxypropyl group on the Cys sulfur

Legend:
[1] = tested on: newborn cord blood and adult peripheral blood; assay: TLR ligand-induced TNF-α release in whole blood ex vivo (ELISA); assay type: cell-based, human; details: for ligand-induced TNF-α release in newborn cord blood compared with adult peripheral blood: 5-hour incubation, FIGS. 1A-1E
Method: Peripheral blood was collected from healthy adult volunteers (N=26 individual volunteers; mean age 27 years; 45% male, 55% female) and newborn cord blood (N=63; mean gestational age 39 weeks; 43% male, 57% female) collected immediately after cesarean section delivery (epidural anesthesia) of the placenta or from the umbilical cord immediately after vaginal birth but prior to delivery of the placenta. Births at which antibiotics were administered during labor and/or delivery, and births to HIV-positive mothers were excluded. Human experimentation guidelines of the US Department of Health and Human Services and the Brigham & Women's Hospital were observed, following protocols approved by the local Institutional Review Board. Blood was anticoagulated with 129 mM sodium citrate (Becton Dickinson, Franklin Lakes, N.J.). Hemocytes were collected by centrifugation of blood, followed by washing three times with Hank's Balanced Salt Solution (HBSS) buffer without magnesium or calcium (Gibco BRL, Grand Island, N.Y.) and then resuspension in either autologous or heterologous 100% plasma.
TLR ligands included the synthetic triacylated BLP (tBLP) Pam3-CSSNA (Bachem Bioscience, King of Prussia, Pa.) corresponding to the N-terminus of a BLP from E. coli B/r (Biesert et al. 1987. Eur J Biochem 162:651), the synthetic diacylated BLP macrophage-activating lipopeptide-2 (MALP; S-(2,3-bisAcyloxypropyl)-cysteine-[…] (SEQ ID NO: 5); Alexis Biochemicals, Lausen, Switzerland) from Mycoplasma fermentans (Muhlradt et al. 1997. J Exp Med. 185:1951), ultrapure Re 595 LPS from Salmonella minnesota (List Biologicals, Campbell, Calif.), and the IRM compounds imiquimod (3M Pharmaceuticals, Northridge, Calif.), and resiquimod (InvivoGen, San Diego, Calif.). Specificity of individual TLR ligands for their cognate receptors was confirmed using either NF-kB luciferase reporter and TLR co-transfected Human Embryonic Kidney (HEK) 293 cells or a neutralizing mAb to TLR2 (Levy, O. et al. 2003. Infect Immun 71:6344), as previously described.
After incubation of TLR ligands in blood or monocyte suspensions for 5 hours at 37° C. with end-over-end rotation, samples were diluted with five volumes of ice-cold RPMI medium (Gibco BRL) and centrifuged at 1,000×g at 4° C. for 5 minutes. The supernatant was recovered and stored at −20° C. until assay of TNF-α by ELISA (R&D Systems, Minneapolis, Minn.).
TLR ligand-induced TNF-α release in whole human blood ex vivo as described above in Example 1. The single stranded ribonucleic acid (ssRNA) tested in this example was ssRNA40/LyoVec purchased from InvivoGen (San Diego, Calif.) comprised of single-stranded GU-rich oligonucleotide (5′-GsCsCsCsGsUsCsUsGsUsUsGsUsGsUsGsAsCsUsC-3′ (SEQ ID NO:1); where “s” depicts a phosphothioate linkage complexed with the cationic lipid LyoVec that protects the RNA from degradation and enhance is uptake by immune cells. The guanosine analog loxoribine (TLR7 ligand) was purchased from InvivoGen.

[2] = tested on: neonatal myeloid dendritic cells (mDCs); assay: CD40 expression on myeloid dendritic cells in whole blood (flow cytometry); assay type: cell-based, human; details: imiquimod 250 μM, resiquimod 50 μM, 19 hours; FIGS. 15A-15D
Method: After lysis of red blood cells and fixation, mDCs were identified as lint-/HLA-DR+/CD11c+ cells using four color flow cytometry (BD BioSciences) and CD40 was measured using a PE-conjugated mAb.
Newborn cord or adult peripheral blood was incubated with TLR agonists at 37° C. for 19 hours. mDCs were identified by flow cytometry and the level of expression of CD40 was measured using a PE-conjugated mAb.
CD40 expression on mDCs was studied in whole newborn cord blood, in comparison to those of adult peripheral blood, using four-color flow cytometry (BD Biosciences). mDCs were identified as lineage 1-/HLA-DR+/CD11c+ cells. Upregulation of surface CD40 expression was measured using a phycoerythrin-conjugated anti-CD40 mAb.

TLR8 and TLR7 [3] = details: cited from earlier work
TLR8 and TLR7 [4] = assay: TLR agonism and TLR8 selectivity (TLR-mediated activity); assay type: cell-based; details: for concentration inducing TLR8 activity as fraction of that necessary to induce TLR7-mediated activity: TLR8 vs TLR7 selectivity; for TLR8 selectivity: named as examples of TLR8-selective compounds
Excerpt: The TLR agonism for a particular compound may be assessed in any suitable manner.
Conversely, a compound may be identified as not acting as an agonist of a specified TLR if, when used to perform an assay designed to detect biological activity mediated by the specified TLR, the compound fails to elicit a threshold increase in the biological activity. […] An assay may or may not be performed in conjunction with the appropriate control.
A significant degree may be, for example, inducing activity mediated by one TLR (e.g., TLR8) when administered at half the concentration necessary to induce activity through another TLR (e.g., TLR7).
Assays employing HEK293 cells transfected with an expressible TLR structural gene may use a threshold of, for example, at least a three-fold increase in a TLR-mediated biological activity (e.g., NFκB activation) when the compound is provided at a concentration of, for example, from about 1 μM to about 10 μM for identifying a compound as an agonist of the TLR transfected into the cell. However, different thresholds and/or different concentration ranges may be suitable in certain circumstances. Also, different thresholds may be appropriate for different assays.

| Molecule | concentration inducing TLR8 activity as fraction of that necessary to induce TLR7-mediated activity (TLR8 and TLR7 [4]) | further results |
| --- | --- | --- |
| CC(C)Cn1cnc2c(N)nc3ccccc3c21 [imiquimod] |  | ligand-induced TNF-α release in newborn cord blood compared with adult peripheral blood [1]: impaired; upregulation of CD40 expression in neonatal mDCs [2]: does not; TLR agonism (which TLR) (TLR8 and TLR7 [3]): agonist at TLR7 receptors |
| CC(C)c1nc2c(N)nc3ccccc3c2s1 [2-(1-methylethyl)thiazolo[4,5-c]quinolin-4-amine] | less than one-fifth |  |
| S-(2,3-bisAcyloxypropyl)-cysteine-GNNDESNISFKEK (C(2,3‑bisacyloxypropyl)GNNDESNISFKEK; also: acyl groups not given here) [MALP, synthetic diacylated BLP from Mycoplasma fermentans (TLR2/6)] |  | ligand-induced TNF-α release in newborn cord blood compared with adult peripheral blood [1]: impaired |
| CC(C)Cc1nc2c(N)nc3ccccc3c2s1 [2-(2-methylpropyl)thiazolo[4,5-c]quinolin-4-amine] | less than one-fifth |  |
| CCCc1nc2c(N)nc3cc(OCCOCCNC(=O)OC(C)(C)C)ccc3c2s1 [tert-butyl 2{-2-[(4-amino-2-propyl[1,3]thiazolo[4,5-c]quinolin-7-yl)oxy]ethoxy}ethylcarbamate] | less than one-fifth |  |
| CCCc1nc2c(N)nc3ccc(N)cc3c2s1 [2-propylthiazolo[4,5-c]quinoline-4,8-diamine] |  | TLR8 selectivity (TLR8 and TLR7 [4]): TLR8-selective |
| CCCc1nc2c(N)nc3cc(OCCNC(=O)OC(C)(C)C)ccc3c2s1 [tert-butyl 2-[(4-amino-2-propyl[1,3]thiazolo[4,5-c]quinolin-7-yl)oxy]ethylcarbamate] | one half to about one-fifth |  |
| CCCc1nc2c(N)nc3ccc(C)cc3c2s1 [8-methyl-2-propylthiazolo[4,5-c]quinolin-4-amine] | less than one-fifth |  |
| CCCc1nc2c(N)nc3cccnc3c2s1 [2-propylthiazolo[4,5-c][1,5]naphthyridin-4-amine] | less than one-fifth |  |
| CCCc1nc2c(N)nc3cc(OCCOCCCl)ccc3c2s1 [7-[2-(2-chloroethoxy)ethoxy]-2-propyl[1,3]thiazolo[4,5-c]quinolin-4-amine] | less than one-fifth |  |
| CCCc1nc2c(N)nc3cc(F)ccc3c2s1 [7-fluoro-2-propylthiazolo[4,5-c]quinolin-4-amine] | less than one-fifth |  |
| CCOCc1nc2c(N)nc3c(c2n1CC(C)(C)O)CCCC3 [IRM3, 4-amino-2-(ethoxymethyl)-α,α-dimethyl-6,7,8,9-tetrahydro-1H-imidazo[4,5-c]quinoline-1-ethanol] |  | TLR agonism (which TLR) (TLR8 and TLR7 [3]): agonist of both TLR7 and TLR8 |
| CCCCc1nc2c(N)nc3cccnc3c2s1 [2-butylthiazolo[4,5-c][1,5]naphthyridin-4-amine] |  | TLR8 selectivity (TLR8 and TLR7 [4]): TLR8-selective |
| CCCc1nc2c(N)nc3cc(OCCCNC(=O)OC(C)(C)C)ccc3c2s1 [tert-butyl 3-[(4-amino-2-propyl[1,3]thiazolo[4,5-c]quinolin-7-yl)oxy]propylcarbamate] | less than one-fifth |  |
| CCCc1nc2c(N)nc3cc(OCCCCCCNS(C)(=O)=O)ccc3c2s1 [N-{6-[(4-amino-2-propyl[1,3]thiazolo[4,5-c]quinolin-7-yl)oxy]hexyl}methanesulfonamide] | less than one-fifth |  |
| Pam3-CSSNA [tBLP] |  | ligand-induced TNF-α release in newborn cord blood compared with adult peripheral blood [1]: impaired; ligand-induced TNF-α release in cord blood compared with adult controls ([1]; cord blood from both Caesarian-section and vaginal deliveries, 5 hours, FIGS. 2A-2C): impaired; magnitude and kinetics of ligand-induced TNF-α release in newborn cord vs. adult peripheral blood ([1]; time course, FIGS. 3A-3C): lower magnitude, but similar kinetics |
| CCCc1nc2c(N)nc3cc(-c4cccc(NS(C)(=O)=O)c4)ccc3c2s1 [N-[3-(4-amino-2-propylthiazolo[4,5-c]quinolin-7-yl)phenyl]methanesulfonamide] | less than one-fifth |  |
| CCOCc1nc2c(N)nc3ccccc3c2n1CC(C)(C)O [resiquimod] |  | potency relative to imiquimod (TLR8 and TLR7 [4]; FIG. 11): ~100 fold |
| CCCc1nc2c(N)nc3cc(OCCCNS(=O)(=O)c4cccc5c(N(C)C)cccc45)ccc3c2s1 [N-{3-[(4-amino-2-propyl[1,3]thiazolo[4,5-c]quinolin-7-yl)oxy]propyl}-5-(dimethylamino)naphthalene-1-sulfonamide] | one half to about one-fifth |  |
